The results in this text go back to patent US9249129B2, “Morpholino substituted urea derivatives as mTOR inhibitors” (CELLZOME LIMITED, priority 2010, dated 2016).

Holding throughout (assay type): binding
The target of assay [1] is T1, mTOR (Homo sapiens, UniProt P42345).
T1 construct: endogenous in cells; host or cells: Jurkat cells (ATCC TIB-152, clone E6-1), lysate
As to the kind of experiment: mTOR kinobeads assay (dot blot detection). The method, boiled down:
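Jurkat cell lysate (5 mg/ml protein) was incubated with test compounds and kinobeads (immobilized phenylthiazole and phenylmorpholin-chromen ligands) for 2 h in the cold with shaking. Bead-bound kinase was SDS-eluted and quantified by antibody dot blot with infrared detection. IC50 values came from dose-response curves.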

The target of assay [2] is T2, kinases (kinome) (Homo sapiens, UniProt P17252).
T2 construct: determined in kinobeads assays with mass spectrometry detection of kinases as described previously; endogenous in cells; host or cells: cell lysate
As to the kind of experiment: kinobeads assay with mass spectrometry detection of kinases (kinase selectivity profile). To be noted: PKCa (AGC), IPI00385449. An excerpt:
(§1) The protein kinase complement of the human genome (the kinome) was described previously (Manning et al., 2002. Science 298(5600):1912-1934). Sequence accession numbers are defined by the International Protein Index (IPI) (Kersey et al., 2004. Proteomics 4(7):1985-1988).

In assay [3] the target is T3, kinases (kinome) (Homo sapiens, UniProt P45983).
T3 construct: determined in kinobeads assays with mass spectrometry detection of kinases as described previously; endogenous in cells; host or cells: cell lysate
Described as above. To be noted: JNK1 (CMGC), IPI00220306.
Source text: as §1

The target of assay [4] is T4, kinases (kinome) (Homo sapiens, UniProt P48736).
T4 construct: determined in kinobeads assays with mass spectrometry detection of kinases as described previously; endogenous in cells; host or cells: cell lysate
Described as above. Particulars: PIK3Cg (Lipid Kinase), IPI00292690.
Source text: as §1

Assay [5] concerns the target T5, kinases (kinome) (Homo sapiens, UniProt P50750).
T5 construct: determined in kinobeads assays with mass spectrometry detection of kinases as described previously; endogenous in cells; host or cells: cell lysate
Described as above. To be noted: CDK9 (CMGC), IPI00552413.
Source text: as §1

The target in assay [6] is T6, kinases (kinome) (Homo sapiens, UniProt P68400).
T6 construct: determined in kinobeads assays with mass spectrometry detection of kinases as described previously; endogenous in cells; host or cells: cell lysate
The assay is described as above. To be noted: CK2a1 (Other), IPI00016613.
Source text: as §1

Assay [7] has as its target T7, kinases (kinome) (Homo sapiens, UniProt Q13233).
T7 construct: determined in kinobeads assays with mass spectrometry detection of kinases as described previously; endogenous in cells; host or cells: cell lysate
Described as above. Particulars: MAP3K1 (STE), IPI00855985.
Source text: as §1

Assay [8] concerns the target T8, kinases (kinome) (Homo sapiens, UniProt Q15059).
T8 construct: determined in kinobeads assays with mass spectrometry detection of kinases as described previously; endogenous in cells; host or cells: cell lysate
The assay is described as above. Particulars: BRD3 (Atypical), IPI00014266.
Source text: as §1

For assay [9], the target named is T9, kinases (kinome) (Homo sapiens, UniProt Q9NSY1).
T9 construct: determined in kinobeads assays with mass spectrometry detection of kinases as described previously; endogenous in cells; host or cells: cell lysate
Described as above. Particulars: BIKE (Other), IPI00337426.
Source text: as §1

Assay [10] concerns the target T10, kinases (kinome) (Homo sapiens, UniProt Q9NYL2).
T10 construct: determined in kinobeads assays with mass spectrometry detection of kinases as described previously; endogenous in cells; host or cells: cell lysate
Described as above. To be noted: ZAK (TKL), IPI00329638.
Source text: as §1

Assay [11] concerns the target T11, kinases (kinome) (Homo sapiens, UniProt Q9Y572).
T11 construct: determined in kinobeads assays with mass spectrometry detection of kinases as described previously; endogenous in cells; host or cells: cell lysate
The assay is described as above. To be noted: RIPK3 (TKL), IPI00847572.
Source text: as §1

Setting [12] is: Table 4, read-out: Inhibition values (IC50) mTOR.
The mark [13] stands for this setting: Table 2, Jurkat cell lysate, read-out: Inhibition values (IC50) mTor.

Where two headings read alike, the source gives them in different places.

T11 sequence (Q9Y572 whole entry): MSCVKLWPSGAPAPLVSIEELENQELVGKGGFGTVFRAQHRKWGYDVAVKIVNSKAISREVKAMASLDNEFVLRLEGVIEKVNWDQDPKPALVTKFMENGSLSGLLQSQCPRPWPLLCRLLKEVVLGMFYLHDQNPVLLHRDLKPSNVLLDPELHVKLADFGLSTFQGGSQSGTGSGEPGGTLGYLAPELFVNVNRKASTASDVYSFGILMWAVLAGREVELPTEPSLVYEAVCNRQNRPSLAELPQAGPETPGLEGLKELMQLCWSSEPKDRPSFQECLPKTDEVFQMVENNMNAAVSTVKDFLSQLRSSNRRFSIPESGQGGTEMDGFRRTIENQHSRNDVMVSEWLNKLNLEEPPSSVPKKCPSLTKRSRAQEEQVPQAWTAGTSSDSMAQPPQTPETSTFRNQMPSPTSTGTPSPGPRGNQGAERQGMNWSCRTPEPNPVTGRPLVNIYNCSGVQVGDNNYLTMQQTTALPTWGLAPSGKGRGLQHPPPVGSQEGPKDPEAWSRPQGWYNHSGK
T4 sequence (P48736 whole entry): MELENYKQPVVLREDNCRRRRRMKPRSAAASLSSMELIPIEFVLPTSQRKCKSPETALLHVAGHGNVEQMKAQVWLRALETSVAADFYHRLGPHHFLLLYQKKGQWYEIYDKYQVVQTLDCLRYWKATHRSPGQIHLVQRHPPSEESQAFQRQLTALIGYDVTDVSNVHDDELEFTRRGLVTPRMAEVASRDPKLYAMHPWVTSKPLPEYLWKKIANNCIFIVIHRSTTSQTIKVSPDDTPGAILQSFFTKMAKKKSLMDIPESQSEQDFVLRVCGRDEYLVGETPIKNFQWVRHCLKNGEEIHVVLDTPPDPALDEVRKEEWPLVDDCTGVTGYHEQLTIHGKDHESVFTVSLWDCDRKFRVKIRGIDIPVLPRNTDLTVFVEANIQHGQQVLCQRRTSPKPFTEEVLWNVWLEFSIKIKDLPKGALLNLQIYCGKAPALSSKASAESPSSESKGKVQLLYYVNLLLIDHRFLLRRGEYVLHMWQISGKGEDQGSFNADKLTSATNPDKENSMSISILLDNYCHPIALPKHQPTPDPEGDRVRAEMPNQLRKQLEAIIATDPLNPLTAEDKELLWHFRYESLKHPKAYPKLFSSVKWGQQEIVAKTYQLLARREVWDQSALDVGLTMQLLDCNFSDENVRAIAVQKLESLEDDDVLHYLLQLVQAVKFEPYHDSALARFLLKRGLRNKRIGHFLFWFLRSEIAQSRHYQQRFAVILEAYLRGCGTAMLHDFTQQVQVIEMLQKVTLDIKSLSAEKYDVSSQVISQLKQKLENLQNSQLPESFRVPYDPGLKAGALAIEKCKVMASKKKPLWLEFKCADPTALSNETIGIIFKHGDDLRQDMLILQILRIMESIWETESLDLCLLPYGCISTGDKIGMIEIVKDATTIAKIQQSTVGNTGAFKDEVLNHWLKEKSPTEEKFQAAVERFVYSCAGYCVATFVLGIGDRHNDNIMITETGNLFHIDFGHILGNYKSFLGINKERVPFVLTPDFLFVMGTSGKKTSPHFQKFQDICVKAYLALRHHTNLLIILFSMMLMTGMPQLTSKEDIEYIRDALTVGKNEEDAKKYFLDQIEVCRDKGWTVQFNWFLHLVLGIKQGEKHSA
T5 sequence (P50750 whole entry): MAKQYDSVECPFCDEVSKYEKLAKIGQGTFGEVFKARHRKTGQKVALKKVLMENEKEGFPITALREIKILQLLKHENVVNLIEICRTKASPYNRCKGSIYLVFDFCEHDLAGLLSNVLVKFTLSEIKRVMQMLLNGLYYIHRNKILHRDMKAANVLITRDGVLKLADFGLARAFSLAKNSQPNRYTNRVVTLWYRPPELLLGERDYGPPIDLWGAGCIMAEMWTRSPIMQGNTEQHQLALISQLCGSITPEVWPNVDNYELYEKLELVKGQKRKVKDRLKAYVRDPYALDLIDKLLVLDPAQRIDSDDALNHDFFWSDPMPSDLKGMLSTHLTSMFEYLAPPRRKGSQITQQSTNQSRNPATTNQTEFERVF
T7 sequence (Q13233 whole entry): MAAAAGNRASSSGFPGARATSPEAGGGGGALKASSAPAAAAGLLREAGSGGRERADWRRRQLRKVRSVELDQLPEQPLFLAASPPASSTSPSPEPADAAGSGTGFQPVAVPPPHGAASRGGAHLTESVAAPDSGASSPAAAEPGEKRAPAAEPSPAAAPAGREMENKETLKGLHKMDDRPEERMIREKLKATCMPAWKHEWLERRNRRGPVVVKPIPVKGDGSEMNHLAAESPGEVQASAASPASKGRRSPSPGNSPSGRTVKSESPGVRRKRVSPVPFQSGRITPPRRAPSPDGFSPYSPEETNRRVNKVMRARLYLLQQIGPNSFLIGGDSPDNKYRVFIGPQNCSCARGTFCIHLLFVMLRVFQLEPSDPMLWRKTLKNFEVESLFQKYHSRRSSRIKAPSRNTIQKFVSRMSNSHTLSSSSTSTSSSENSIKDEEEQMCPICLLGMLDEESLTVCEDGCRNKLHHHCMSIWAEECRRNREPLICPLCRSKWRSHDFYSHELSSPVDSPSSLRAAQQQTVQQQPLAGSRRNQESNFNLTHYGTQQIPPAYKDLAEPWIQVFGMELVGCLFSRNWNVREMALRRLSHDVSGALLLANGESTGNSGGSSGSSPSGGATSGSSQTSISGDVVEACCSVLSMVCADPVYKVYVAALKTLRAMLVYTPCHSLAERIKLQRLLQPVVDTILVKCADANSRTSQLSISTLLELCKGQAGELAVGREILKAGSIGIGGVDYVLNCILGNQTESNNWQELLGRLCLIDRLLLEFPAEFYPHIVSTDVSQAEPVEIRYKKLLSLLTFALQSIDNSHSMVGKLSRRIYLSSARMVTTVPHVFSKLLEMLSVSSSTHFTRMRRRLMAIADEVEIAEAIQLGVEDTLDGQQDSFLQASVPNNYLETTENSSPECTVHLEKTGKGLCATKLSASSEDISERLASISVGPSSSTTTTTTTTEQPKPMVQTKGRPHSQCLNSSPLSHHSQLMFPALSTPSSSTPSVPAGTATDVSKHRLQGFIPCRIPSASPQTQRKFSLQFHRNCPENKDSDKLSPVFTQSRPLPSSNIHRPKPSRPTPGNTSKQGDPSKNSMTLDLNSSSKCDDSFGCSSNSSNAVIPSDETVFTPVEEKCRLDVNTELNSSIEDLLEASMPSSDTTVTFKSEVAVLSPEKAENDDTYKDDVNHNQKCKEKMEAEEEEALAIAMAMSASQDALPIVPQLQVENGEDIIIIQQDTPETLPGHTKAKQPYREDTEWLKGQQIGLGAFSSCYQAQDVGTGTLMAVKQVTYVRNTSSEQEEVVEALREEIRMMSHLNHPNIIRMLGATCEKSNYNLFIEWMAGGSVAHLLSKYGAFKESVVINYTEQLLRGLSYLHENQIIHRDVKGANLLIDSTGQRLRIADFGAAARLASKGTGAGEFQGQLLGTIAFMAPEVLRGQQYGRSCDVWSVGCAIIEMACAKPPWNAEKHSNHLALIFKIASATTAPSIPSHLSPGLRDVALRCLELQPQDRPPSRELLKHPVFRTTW
T10 sequence (Q9NYL2 whole entry): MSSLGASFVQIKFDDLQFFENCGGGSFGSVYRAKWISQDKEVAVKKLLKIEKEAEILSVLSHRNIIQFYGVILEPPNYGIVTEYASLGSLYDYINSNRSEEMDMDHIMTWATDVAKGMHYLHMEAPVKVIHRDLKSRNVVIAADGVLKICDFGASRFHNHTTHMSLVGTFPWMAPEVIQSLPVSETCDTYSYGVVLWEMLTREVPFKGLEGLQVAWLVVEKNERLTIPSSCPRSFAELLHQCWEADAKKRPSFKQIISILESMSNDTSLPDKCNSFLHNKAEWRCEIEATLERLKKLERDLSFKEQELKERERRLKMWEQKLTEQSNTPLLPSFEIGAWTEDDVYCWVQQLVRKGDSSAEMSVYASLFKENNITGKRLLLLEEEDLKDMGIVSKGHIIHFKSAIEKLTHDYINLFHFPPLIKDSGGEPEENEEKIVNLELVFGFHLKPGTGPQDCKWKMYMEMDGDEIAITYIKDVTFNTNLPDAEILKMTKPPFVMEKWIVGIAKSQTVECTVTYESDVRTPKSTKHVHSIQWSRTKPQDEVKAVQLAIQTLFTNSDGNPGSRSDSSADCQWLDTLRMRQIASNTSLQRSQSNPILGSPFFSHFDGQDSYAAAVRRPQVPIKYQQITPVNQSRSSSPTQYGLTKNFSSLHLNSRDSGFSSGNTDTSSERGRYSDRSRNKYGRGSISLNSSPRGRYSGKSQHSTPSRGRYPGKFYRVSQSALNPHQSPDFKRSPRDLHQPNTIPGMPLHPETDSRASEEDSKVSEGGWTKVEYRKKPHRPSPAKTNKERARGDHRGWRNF

Take `C[C@H]1COCCN1c1nc(-c2ccc(NC(=O)N[C@H]3CCC[C@@H]3O)cc2)cc(-c2cc(F)ccc2S(C)(=O)=O)n1` [Example 76, 1-(4-(6-(5-fluoro-2-(methylsulfonyl)phenyl)-2-((S)-3-methylmorpholino)pyrimidin-4-yl)phenyl)-3-((1S,2S)-2-hydroxycyclopentyl)urea]: the IC50 in [1] (setting [12]) was 0.1 to 1 µM; in assay [2], greater than 10 µM; in assay [3] it was greater than 10 µM; in assay [4], greater than 10 µM; in [5] it was greater than 10 µM; in assay [6], greater than 10 µM. Besides, the 50% inhibitory concentration (IC50) in [7], in assay [8], in [9], in assay [10] and in assay [11] was greater than 10 µM throughout.
Turning to `C[C@H]1COCCN1c1nc(-c2ccc(NC(=O)NC3CC3)cc2)cc(-c2ccccc2S(C)(=O)=O)n1` [Example 4, (S)-1-cyclopropyl-3-(4-(2-(3-methylmorpholino)-6-(2-(methylsulfonyl)phenyl)pyrimidin-4-yl)phenyl)urea], the IC50 in [1] (setting [13]) was 0.1 to 1 µM; in assay [1] (setting [12]) it was 0.1 to 1 µM; in assay [2], greater than 10 µM; in assay [3], greater than 10 µM; in assay [4] it was greater than 10 µM; in assay [5], greater than 10 µM. Also, the IC50 in assay [6], in [7], in assay [8], in [9], in [10] and in assay [11] was greater than 10 µM each time.
Consider `C[C@H]1COCCN1c1cc(-c2ccccc2S(C)(=O)=O)nc(-c2ccc(NC(=O)NC3CC3)cc2)n1` [Example 6, (S)-1-cyclopropyl-3-(4-(4-(3-methylmorpholino)-6-(2-(methylsulfonyl)phenyl)pyrimidin-2-yl)phenyl)urea], for which the IC50 in assay [1] (setting [13]) was 0.1 to 1 µM; in [1] (setting [12]), 0.1 to 1 µM; in [2], greater than 10 µM; in assay [3] it was greater than 10 µM; in assay [4], greater than 10 µM; in [5] it was greater than 10 µM. The IC50 in assay [6], in assay [7], in assay [8], in [9], in assay [10] and in assay [11] was greater than 10 µM in each case.
With `C[C@H]1COCCN1c1cc(-c2ccccn2)nc(-c2ccc(NC(=O)NCCO)cc2)n1` [Example 43, (S)-1-(2-hydroxyethyl)-3-(4-(4-(3-methylmorpholino)-6-(pyridin-2-yl)pyrimidin-2-yl)phenyl)urea], the IC50 in assay [1] (setting [13]) was 0.1 to 1 µM; in assay [1] (setting [12]) it was 0.1 to 1 µM; in [2], greater than 10 µM; in [3] it was greater than 10 µM; in assay [4], greater than 10 µM; in [5] it was greater than 10 µM. Also, the IC50 in [6], in assay [7], in assay [8], in assay [9], in assay [10] and in [11] was greater than 10 µM throughout.
For the compound `C[C@H]1COCCN1c1nc(-c2ccc(NC(=O)NC3CC3)cc2)cc(-c2cccnc2S(C)(=O)=O)n1` [Example 46, (S)-1-cyclopropyl-3-(4-(2-(3-methylmorpholino)-6-(2-(methylsulfonyl)pyridin-3-yl)pyrimidin-4-yl)phenyl)urea], the concentration for half-maximal inhibition (IC50) was 0.1 to 1 µM in assay [1] (setting [13]); 0.1 to 1 µM in [1] (setting [12]); greater than 10 µM in assay [2]; greater than 10 µM in assay [3]; greater than 10 µM in assay [4]; greater than 10 µM in assay [5]. For the same compound, the IC50 in assay [6], in [7], in assay [8], in assay [9], in assay [10] and in assay [11] was greater than 10 µM each time.
For `CCNC(=O)Nc1ccc(-c2cc(-c3ccccc3C#N)nc(N3CCOC[C@@H]3C)n2)cc1` [Example 8, (S)-1-(4-(6-(2-cyanophenyl)-2-(3-methylmorpholino)pyrimidin-4-yl)phenyl)-3-ethylurea], the IC50 was 1 to 10 µM in assay [1] (setting [13]); 1 to 10 µM in assay [1] (setting [12]); greater than 10 µM in assay [2]; greater than 10 µM in assay [3]; greater than 10 µM in [4]; greater than 10 µM in [5]. The 50% inhibitory concentration (IC50) in assay [6], in assay [7], in assay [8], in [9], in [10] and in [11] was greater than 10 µM in each case.
As to `C[C@H]1COCCN1c1nc(-c2ccc(NC(=O)NC3CC3)cc2)cc(-c2cc(F)ccc2S(C)(=O)=O)n1` [Example 40, (S)-1-cyclopropyl-3-(4-(6-(5-fluoro-2-(methylsulfonyl)phenyl)-2-(3-methylmorpholino)pyrimidin-4-yl)phenyl)urea], the IC50 in assay [1] (setting [13]) is 0.1 to 1 µM; in assay [1] (setting [12]) it was 0.1 to 1 µM; in assay [2] it was greater than 10 µM; in assay [3], greater than 10 µM; in assay [4], greater than 10 µM; in assay [5], greater than 10 µM. The IC50 in assay [6], in [7], in assay [8], in [9], in [10] and in assay [11] was greater than 10 µM in each case.

Broadly, the IC50 is the concentration at which inhibition is half-maximal.
